# Reference: US20260138958A1, “SUBSTITUTED N-PHENYLURACILS AND SALTS THEREOF, AND USE THEREOF AS HERBICIDAL ACTIVE SUBSTANCES” (Bayer Aktiengesellschaft, priority 2022, published 2026)
# Experiments:
# Type in all cases: in vivo
# [1] = system: Triticum aestivum (TRZAS); assay: Post-emergence crop plant compatibility, greenhouse pot test; conditions: Triticum aestivum, in vivo
# Experimental: (§1) Seeds of monocotyledonous and dicotyledonous weeds and crop plants were placed in sandy loam in plastic or wood-fibre pots, covered with soil and cultivated in a greenhouse under controlled growth conditions. 2 to 3 weeks after sowing, the test plants were treated at the one-leaf stage. The compounds of the invention, formulated in the form of wettable powders (WP) or as emulsion concentrates (EC), were then sprayed onto the green parts of the plants as aqueous suspension or emulsion with addition of 0.5% additive at a water application rate of 600 l/ha (converted). After the test plants had been kept in the greenhouse under optimum growth conditions for about 3 weeks, the activity of the preparations was rated visually in comparison to untreated controls. For example, 100% activity=the plants have died, 0% activity=like control plants.
# (§2) The observed effects on selected crop plants are reported here in comparison to the untreated controls (values in %).
# [2] = system: Polygonum convolvulus (POLCO); assay: Post-emergence herbicidal action, greenhouse pot test; conditions: for pest or weed control at 5 g/ha / pest or weed control at 20 g/ha: Fallopia convolvulus, 504 h; for pest or weed control at 5 g/ha: read-out: Post-emergence effect at 5 g/ha against POLCO in %; for pest or weed control at 20 g/ha: read-out: Post-emergence effect at 20 g/ha against POLCO in %
# Experimental: as §1
# [3] = system: Abutilon theophrasti (ABUTH); assay: as above; conditions: for pest or weed control at 5 g/ha / pest or weed control at 20 g/ha: Abutilon theophrasti, 504 h; for pest or weed control at 5 g/ha: read-out: Post-emergence effect at 5 g/ha against ABUTH in %; for pest or weed control at 20 g/ha: read-out: Post-emergence effect at 20 g/ha against ABUTH in %
# Experimental: as §1
# [4] = system: Digitaria sanguinalis (DIGSA); assay: as above
# Experimental: as §1
# [5] = system: Echinochloa crus-galli (ECHCG); assay: as above; conditions: for pest or weed control at 20 g/ha: Echinochloa crus-galli, 504 h, read-out: Post-emergence effect at 20 g/ha against ECHCG in %
# Experimental: as §1
# [6] = system: Setaria viridis (SETVI); assay: as above; conditions: for pest or weed control at 5 g/ha / pest or weed control at 20 g/ha: Setaria viridis, 504 h; for pest or weed control at 5 g/ha: read-out: Post-emergence effect at 5 g/ha against SETVI in %; for pest or weed control at 20 g/ha: read-out: Post-emergence effect at 20 g/ha against SETVI in %
# Experimental: as §1
# [7] = system: Lolium rigidum (LOLRI); assay: as above
# Experimental: as §1
# [8] = system: Pharbitis purpurea (PHBPU); assay: as above; conditions: Ipomoea purpurea, 504 h; for pest or weed control at 5 g/ha: read-out: Post-emergence effect at 5 g/ha against PHBPU in %; for pest or weed control at 20 g/ha: read-out: Post-emergence effect at 20 g/ha against PHBPU in %
# Experimental: as §1
# [9] = system: Alopecurus myosuroides (ALOMY); assay: as above; conditions: for pest or weed control at 20 g/ha: Alopecurus myosuroides, 504 h, read-out: Post-emergence effect at 20 g/ha against ALOMY in %
# Experimental: as §1
# [10] = system: Tripleurospermum inodorum (MATIN); assay: as above; conditions: Tripleurospermum inodorum, 504 h, 20 g/ha, read-out: Post-emergence effect at 20 g/ha against MATIN in %
# Experimental: as §1
# [11] = system: Veronica persica (VERPE); assay: as above; conditions: for pest or weed control at 5 g/ha / pest or weed control at 20 g/ha: Veronica persica, 504 h; for pest or weed control at 5 g/ha: read-out: Post-emergence effect at 5 g/ha against VERPE in %; for pest or weed control at 20 g/ha: read-out: Post-emergence effect at 20 g/ha against VERPE in %
# Experimental: as §1
# [12] = system: Viola tricolor (VIOTR); assay: as above; conditions: for pest or weed control at 20 g/ha: Viola tricolor, 504 h, read-out: Post-emergence effect at 20 g/ha against VIOTR in %
# Experimental: as §1
# [13] = system: Bassia scoparia (KCHSC); assay: as above
# Experimental: as §1
# [14] = system: Amaranthus retroflexus (AMARE); assay: as above; conditions: Amaranthus retroflexus, 504 h; for pest or weed control at 1.25 g/ha: read-out: Post-emergence effect at 1.25 g/ha against AMARE in %; for pest or weed control at 5 g/ha: read-out: Post-emergence effect at 5 g/ha against AMARE in %; for pest or weed control at 20 g/ha: read-out: Post-emergence effect at 20 g/ha against AMARE in %
# Experimental: as §1
# [15] = system: Zea mays (ZEAMX); assay: Post-emergence crop plant compatibility, greenhouse pot test; conditions: Zea mays, in vivo
# Experimental: as §1, §2
Post-emergence effect at 1.25 g/ha against TRZAS in % [1] [%],Structure (SMILES),Post-emergence effect at 1.25 g/ha against POLCO in % [2] [%],pest or weed control at 5 g/ha [2] [%],pest or weed control at 20 g/ha [2] [%],Post-emergence effect at 1.25 g/ha against ABUTH in % [3] [%],pest or weed control at 5 g/ha [3] [%],pest or weed control at 20 g/ha [3] [%],Post-emergence effect at 1.25 g/ha against DIGSA in % [4] [%],Post-emergence effect at 5 g/ha against DIGSA in % [4] [%],Post-emergence effect at 20 g/ha against DIGSA in % [4] [%],Post-emergence effect at 5 g/ha against ECHCG in % [5] [%],pest or weed control at 20 g/ha [5] [%],pest or weed control at 5 g/ha [6] [%],pest or weed control at 20 g/ha [6] [%],Post-emergence effect at 20 g/ha against LOLRI in % [7] [%],pest or weed control at 5 g/ha [8] [%],pest or weed control at 20 g/ha [8] [%],pest or weed control at 20 g/ha [9] [%],pest or weed control at 20 g/ha [10] [%],Post-emergence effect at 1.25 g/ha against VERPE in % [11] [%],further results
20,"Cn1c(C(F)(F)F)cc(=O)n(-c2cc(Oc3ccccc3OCC(=O)OCC3CCC3)c(Cl)cc2F)c1=O [I.7-10, Cyclobutylmethyl (2-{2-chloro-4-fluoro-5-[3-methyl-2,6-dioxo-4-(trifluoromethyl)-3,6-dihydropyrimidin-1(2H)-yl]phenoxy}phenoxy)acetate]",100,100,100,100,100,100,80,100,100,100,100,100,100,100,100,100,100,100,100,Post-emergence effect at 1.25 g/ha against ECHCG in % ([5]; 1.25 g/ha): 100%; Post-emergence effect at 1.25 g/ha against SETVI in % ([6]; 1.25 g/ha): 100%; pest or weed control at 5 g/ha [11]: 100%; pest or weed control at 20 g/ha [11]: 100%; Post-emergence effect at 1.25 g/ha against VIOTR in % [12]: 100%; Post-emergence effect at 5 g/ha against VIOTR in % [12]: 100%; pest or weed control at 20 g/ha [12]: 100%; Post-emergence effect at 1.25 g/ha against KCHSC in % [13]: 100%; Post-emergence effect at 5 g/ha against KCHSC in % [13]: 100%; Post-emergence effect at 20 g/ha against KCHSC in % [13]: 100%; pest or weed control at 1.25 g/ha [14]: 100%; pest or weed control at 5 g/ha [14]: 100%; pest or weed control at 20 g/ha [14]: 100%
10,"Cn1c(C(F)(F)F)cc(=O)n(-c2cc(Oc3ccccc3OCC(=O)OCC3CC34CC4)c(Cl)cc2F)c1=O (stereo not drawn) [I.7-18, Spiro[2.2]pentan-1-ylmethyl (2-{2-chloro-4-fluoro-5-[3-methyl-2,6-dioxo-4-(trifluoromethyl)-3,6-dihydropyrimidin-1(2H)-yl]phenoxy}phenoxy)acetate]",100,100,100,100,100,100,100,100,100,100,100,100,100,100,100,100,100,100,80,Post-emergence effect at 1.25 g/ha against ZEAMX in % [15]: 20%; Post-emergence effect at 5 g/ha against ALOMY in % ([9]; 5 g/ha): 80%; pest or weed control at 5 g/ha [11]: 100%; pest or weed control at 20 g/ha [11]: 100%; Post-emergence effect at 1.25 g/ha against VIOTR in % [12]: 100%; Post-emergence effect at 5 g/ha against VIOTR in % [12]: 100%; pest or weed control at 20 g/ha [12]: 100%; Post-emergence effect at 1.25 g/ha against KCHSC in % [13]: 100%; Post-emergence effect at 5 g/ha against KCHSC in % [13]: 100%; Post-emergence effect at 20 g/ha against KCHSC in % [13]: 100%; pest or weed control at 1.25 g/ha [14]: 100%; pest or weed control at 5 g/ha [14]: 100%; pest or weed control at 20 g/ha [14]: 100%
